In patent US20120328569A1, “INHIBITORS OF HEPATITIS C VIRUS NS5B POLYMERASE” (priority 2010, published 2012) one finds IC50 data, which are given here for 29 molecules.

Molecules are shown by their SMILES. Read-outs that look alike come from different tables or passages of the source.

This test concerns HCV genotype 1b replicon. Kind of test: HCV replicon assay, cell ELISA with antibody to replicon-encoded NS3/4A (genotype 1b replicon). The settings on record: 96 hours incubation, NS3/4A cell ELISA. In kind it is cell-based, hepatitis C virus. The gist of the method: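 An ELISA on lysed cells, using an antibody against NS3/4A protease, served as the proxy for replicon RNA. Cells had first been exposed for 96 h to serially diluted compound in G418-free conditions. Percent of DMSO control was fitted with a four-parameter function to give IC50.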
(In general: Replicon systems follow genome replication, usually without infectious particles.)

Where [1] appears, read: Hepatitis C virus, 96 h, read-out: 1b IC50(nM), HCV genotype 1b replicon.

For the molecule `CNC(=O)c1c(-c2ccc(F)cc2)oc2cc(N(CCCP(=O)(O)O)S(C)(=O)=O)c(-c3ccc(OC)c(-c4nc5c(F)cccc5o4)c3)cc12` [Example 843], the IC50 (in general, the concentration that gives 50% inhibition) under setting [1] amounted to 19.5 nM.

Regarding `CCOP(=O)(O)CCCN(c1cc2oc(-c3ccc(F)cc3)c(C(=O)NC)c2cc1-c1ccc(OC)c(-c2nc3c(F)cccc3o2)c1)S(C)(=O)=O` [Example 844], the IC50 (HCV genotype 1b replicon, read-out: 1b IC50) is 3.88 nM.

Regarding `CN(C(=O)c1c(-c2ccc(F)cc2)oc2cc(N(C)S(C)(=O)=O)c(-c3cccc(-c4cc5ccccc5[nH]4)c3)cc12)c1ccncc1` [Example 848], under setting [1], the IC50 was determined as 6440 nM. On the same count and under the same terms, under `CN(c1cc2oc(-c3ccc(F)cc3)c(C(=O)Nc3cccnc3)c2cc1-c1cccc(-c2cc3ccccc3[nH]2)c1)S(C)(=O)=O` [Example 851, 5-(3-(1H-indol-2-yl)phenyl)-2-(4-fluorophenyl)-6-(N-methylmethylsulfonamido)-N-(pyridin-3-yl)benzofuran-3-carboxamide] stands 350 nM; under `CNC(=O)c1c(-c2ccc(F)cc2)oc2cc(N(C)S(C)(=O)=O)c(-c3ccc(F)c(-c4cc5cccnc5[nH]4)c3)cc12` [Example 855], 1.2 nM. Consider `CNC(=O)c1c(-c2ccc(F)cc2)oc2cc(N(CCCO)S(C)(=O)=O)c(-c3cc(F)cc(-c4nc5ncccc5o4)c3)cc12` [Example 856], for which the IC50 under setting [1] was 4 nM. `CNC(=O)c1c(-c2ccc(F)cc2)oc2cc(N(C)S(C)(=O)=O)c(-c3ccc(OC)c(-c4nc5cc(F)ccc5o4)c3)cc12` [Example 857]: the IC50 under setting [1] came to 2.6 nM. For the molecule `CNC(=O)c1c(-c2ccc(F)cc2)oc2cc(N(C)S(C)(=O)=O)c(-c3ccc(OC)c(-c4nc5cccc(C#N)c5o4)c3)cc12` [Example 858], the IC50 under setting [1] worked out at 2.8 nM.

For `CNC(=O)c1c(-c2ccc(F)cc2)oc2cc(N(CCC(C)(C)O)S(C)(=O)=O)c(-c3cccc(-c4nc5ncccc5o4)c3)cc12` [Example 859], under setting [1], the IC50 was determined as 2.1 nM.

`CNC(=O)c1c(-c2ccc(F)cc2)oc2cc(N(C)S(C)(=O)=O)c(-c3ccc(OC)c(-c4cc5cc(F)ccc5[nH]4)c3)cc12` [Example 860]: the IC50 under setting [1] came to 1.9 nM. Still for that read-out and setting: under `CNC(=O)c1c(-c2ccc(F)cc2)oc2cc(N(C)S(C)(=O)=O)c(-c3cc(OC)cc(-c4cc5cccnc5[nH]4)c3)cc12` [Example 861] stands 1.8 nM; under `CNC(=O)c1c(-c2ccc(F)cc2)oc2cc(N(C)S(C)(=O)=O)c(-c3cc(F)cc(-c4nc5ncc(F)cc5o4)c3)cc12` [Example 862], 1.3 nM; under `CNC(=O)c1c(-c2ccc(F)cc2)oc2cc(N(CCCF)S(C)(=O)=O)c(-c3ccc(OC)c(-c4nc5ncccc5o4)c3)cc12` [Example 863], 1.8 nM. The same measure, in the same setting: under `CNC(=O)c1c(-c2ccc(F)cc2)oc2cc(N(C)S(C)(=O)=O)c(-c3ccc(Cl)c(-c4nc5c(F)cccc5o4)c3)cc12` [Example 865] stands 4.7 nM; under `CNC(=O)c1c(-c2ccc(F)cc2)oc2cc(N(C)S(C)(=O)=O)c(-c3cc(OC)cc(-c4nc5ncccc5o4)c3)cc12` [Example 866], 3.1 nM. On to `CNC(=O)c1c(-c2ccc(F)cc2)oc2cc(N(CCF)S(C)(=O)=O)c(-c3cccc(-c4nc5ncccc5o4)c3)cc12` [Example 867], for which the IC50 (read-out: 1b IC50, HCV genotype 1b replicon) is 1.8 nM.

As to `CNC(=O)c1c(-c2ccc(F)cc2)oc2cc(N(CCCF)S(C)(=O)=O)c(-c3cccc(-c4nc5ncccc5o4)c3)cc12` [Example 868], the IC50 under setting [1] amounted to 1.3 nM. Still for that read-out and setting: to `CNC(=O)c1c(-c2ccc(F)cc2)oc2cc(N(CC(F)F)S(C)(=O)=O)c(-c3cccc(-c4nc5ncccc5o4)c3)cc12` [Example 869] belongs 2.3 nM.

Regarding `CNC(=O)c1c(-c2ccc(F)cc2)oc2cc(N(CCF)S(C)(=O)=O)c(-c3ccc(OC)c(-c4nc5ncccc5o4)c3)cc12` [Example 870], the IC50 under setting [1] was determined as 1.3 nM. Consider `CNC(=O)c1c(-c2ccc(F)cc2)oc2cc(N(CCF)S(C)(=O)=O)c(-c3ccc(OC)c(-c4nc5cccc(F)c5o4)c3)cc12` [Example 871], for which, under setting [1], the IC50 was found to be 3.5 nM. On the same count and under the same terms, to `CNC(=O)c1c(-c2ccc(F)cc2)oc2cc(N(CCC(F)(F)F)S(C)(=O)=O)c(-c3cccc(-c4nc5ncccc5o4)c3)cc12` [Example 872] belongs 4.7 nM; to `CNC(=O)c1c(-c2ccc(F)cc2)oc2cc(N(CCF)S(C)(=O)=O)c(-c3cc(F)cc(-c4nc5ncccc5o4)c3)cc12` [Example 873], 3.4 nM; to `CNC(=O)c1c(-c2ccc(F)cc2)oc2cc(N(C)S(C)(=O)=O)c(-c3ccc(OC)c(-c4nc5c(F)ccc(F)c5o4)c3)cc12` [Example 874], 2.1 nM. Still for that read-out and setting: under `CNC(=O)c1c(-c2ccc(F)cc2)oc2cc(N(C(C)CF)S(C)(=O)=O)c(-c3cccc(-c4nc5ncccc5o4)c3)cc12` (centres unmarked) [Example 875] stands 2.1 nM; under `CNC(=O)c1c(-c2ccc(F)cc2)oc2cc(N(CC(F)F)S(C)(=O)=O)c(-c3cc(F)cc(-c4nc5ncccc5o4)c3)cc12` [Example 876], 3.5 nM. Same read-out and setting: to `CNC(=O)c1c(-c2ccc(F)cc2)oc2cc(N(CC(F)F)S(C)(=O)=O)c(-c3ccc(OC)c(-c4nc5ncccc5o4)c3)cc12` [Example 877] belongs 5.1 nM; to `CNC(=O)c1c(-c2ccc(F)cc2)oc2cc(N(CC(F)F)S(C)(=O)=O)c(-c3ccc(OC)c(-c4nc5cccc(F)c5o4)c3)cc12` [Example 878], 17.2 nM. `CNC(=O)c1c(-c2ccc(F)cc2)oc2cc(N(CCC(C)(C)O)S(C)(=O)=O)c(-c3cc(F)cc(-c4nc5ncccc5o4)c3)cc12` [Example 879]: the concentration for half-maximal inhibition (IC50) under setting [1] came out at 2.6 nM. Still for that read-out and setting: to `CNC(=O)c1c(-c2ccc(F)cc2)oc2cc(N(CCC(C)(C)O)S(C)(=O)=O)c(-c3ccc(OC)c(-c4nc5ncccc5o4)c3)cc12` [Example 880] belongs 2.9 nM.
